Measured values from the NIST ThermoML archive (doi:10.1016/j.jct.2017.05.006).

Assay: osmotic coefficient (dimensionless); mn = molality of the nth substance listed, in mol/kg
Conditions: 298.15 K, Liquid, isopiestic method

O=[N+]([O-])[O-].O=[N+]([O-])[O-].[Mg+2] [magnesium nitrate] + O
Conditions	osmotic coefficient
m1 = 0.7578	1.015
m1 = 0.855	1.032
m1 = 0.9755	1.071
m1 = 1.067	1.103
m1 = 1.126	1.115
m1 = 1.15	1.122
m1 = 1.187	1.13
m1 = 1.191	1.135
m1 = 1.234	1.143
m1 = 1.309	1.172
m1 = 1.395	1.196

O=S(=O)([O-])[O-].[Mg+2] [magnesium sulfate] + O
Conditions	osmotic coefficient
m1 = 1.562	0.586
m1 = 1.585	0.593
m1 = 1.607	0.595
m1 = 1.643	0.601
m1 = 1.7	0.609
m1 = 1.742	0.617
m1 = 1.803	0.625
m1 = 1.884	0.641
m1 = 2.007	0.665
m1 = 2.132	0.692
m1 = 2.243	0.714
m1 = 2.385	0.746
